Assay results as given in patent US20130101530A1, “ANTIMICROBIAL PRESERVATIVE COMPOSITIONS FOR PERSONAL CARE PRODUCTS” (GALAXY SURFACTANTS LTD., priority 2011, published 2013).
Like-named read-outs stand apart in the source and are kept apart here.

Columns and labels:
[1] = 0.1% aqueous solution at 25° C.; water 72 dynes/cm; cited from earlier work
[2] = tested on: Candida albicans ATCC 10231; experiment: Minimum inhibitory concentration; assay type: cell-based; settings: ATCC10231
[3] = Reduction in surface tension of water; assay type: physicochemical
Procedure: The ‘liquid alcohol ether’ as used herein like 2-ethyl hexyl glyceryl ether is also a surfactant where the hydrophobe is provided by octyl group and the hydrophilic portion is the two hydroxyl groups of glycerine moiety and the ether linkage.
A mixture of octanoic acid (114 g, […]), BHT (0.3 g) and monoethanol amine (61 g, […]) is stirred under nitrogen blanket in a pressure vessel at 140° C. for 4 hr and then the temperature is raised to 165° C. for additional one hour. At this stage, acid value is normally found to be around 5 or less. The reaction was then cooled under mild vacuum to 60° C. and the molten mass is converted into off-white flakes (148 g, 95%) by pouring it on a glass plate. (Melting point 62-64° C., acid value 5, IR (KBr): 1640 cm^−1 (carbonyl of amide), 1556 cm^−1, 2919 cm^−1, 3289 cm^−1 (NH of amide) Reduction is surface tension of water: 0.05% solution, 38.5 dyne/cm, 0.1% solution 30.5 dyne/cm.

[4] = tested on: all types of microbes (Gram positive, Gram negative bacteria, yeast and mould; the chosen eight organisms); experiment: Minimum inhibitory concentration, whole panel; assay type: cell-based; settings: up to 1.0% concentration; bacteria, yeast and mould
[5] = tested on: Pseudomonas aeruginosa Immuno type IV; experiment: Minimum inhibitory concentration; assay type: cell-based
[6] = tested on: Bacillus subtilis ATCC 9372; experiment: microbe, parasite or virus in culture; assay type: cell-based; settings: ATCC9372
[7] = tested on: Aspergillus niger ATCC 16404; experiment: Minimum inhibitory concentration; assay type: cell-based; settings: ATCC16404, Aspergillus niger
[8] = tested on: Propionibacterium acnes MTCC 1951; experiment: Minimum inhibitory concentration; assay type: cell-based; settings: Cutibacterium acnes, MTCC1951
[9] = tested on: Escherichia coli ATCC 10142; experiment: Minimum inhibitory concentration; assay type: cell-based; settings: ATCC10142
[10] = tested on: Staphylococcus aureus ATCC 6538S; experiment: Minimum inhibitory concentration; assay type: cell-based; settings: ATCC6538S
[11] = tested on: Malassezia furfur MTCC 1374; experiment: Minimum inhibitory concentration; assay type: cell-based; settings: MTCC1374

Row | Structure (SMILES) | Surface tension of water [1] [dynes/cm] | MIC ([2]; Candida albicans ATCC 10231, read-out: MINIMUM INHIBITORY CONCENTRATION) [µg/mL] | MIC ([2]; in Preservative Blend No 2 (10:10:80), Candida albicans, read-out: Concentration of individual component at MIC of Preservative Blend No 2) [µg/mL] | Surface tension of water ([3]; 0.05% level) [dynes/cm] | Surface tension of water ([3]; 0.1% concentration) [dynes/cm] | Antimicrobial activity of the ingredient alone [4] | MIC ([5]; Pseudomonas aeruginosa Immuno type IV, read-out: MINIMUM INHIBITORY CONCENTRATION) [µg/mL] | MIC ([5]; in Preservative Blend No 2 (10:10:80), Pseudomonas aeruginosa, read-out: Concentration of individual component at MIC of Preservative Blend No 2) [µg/mL] | MIC ([6]; Bacillus subtilis ATCC 9372, read-out: MINIMUM INHIBITORY CONCENTRATION) [µg/mL] | MIC ([6]; in Preservative Blend No 2 (10:10:80), Bacillus subtilis, read-out: Concentration of individual component at MIC of Preservative Blend No 2) [µg/mL] | MIC ([7]; in Preservative Blend No 2 (10:10:80), read-out: Concentration of individual component at MIC of Preservative Blend No 2) [µg/mL] | MIC ([7]; read-out: MINIMUM INHIBITORY CONCENTRATION) [µg/mL] | MIC ([8]; Propionibacterium acnes MTCC 1951, read-out: MINIMUM INHIBITORY CONCENTRATION) [µg/mL] | MIC ([8]; in Preservative Blend No 2 (10:10:80), Propionibacterium acnes, read-out: Concentration of individual component at MIC of Preservative Blend No 2) [µg/mL] | MIC ([9]; Escherichia coli ATCC 10142, read-out: MINIMUM INHIBITORY CONCENTRATION) [µg/mL] | MIC ([9]; in Preservative Blend No 2 (10:10:80), Escherichia coli, read-out: Concentration of individual component at MIC of Preservative Blend No 2) [µg/mL] | MIC ([10]; Staphylococcus aureus ATCC 6538S, read-out: MINIMUM INHIBITORY CONCENTRATION) [µg/mL] | MIC ([10]; in Preservative Blend No 2 (10:10:80), Staphylococcus aureus, read-out: Concentration of individual component at MIC of Preservative Blend No 2) [µg/mL] | MIC ([11]; Malassezia furfur MTCC 1374, read-out: MINIMUM INHIBITORY CONCENTRATION) [µg/mL] | MIC ([11]; in Preservative Blend No 2 (10:10:80), Malassezia furfur, read-out: Concentration of individual component at MIC of Preservative Blend No 2) [µg/mL]
1 | CCCCC(CC)COCC(O)CO (centres unmarked) [2-ethyl hexyl glyceryl ether, 3-(2-ethylhexyl) oxy 1,2-propanediol] | 32 | – | – | – | – | – | – | – | – | – | – | – | – | – | – | – | – | – | – | –
2 | CCCCCCCC(=O)NCCO [Octanoyl MEA amide, N-(2-hydroxylethyl)caprylic acid amide] | – | > 10000 | 200 | 38 | 30 | did not exhibit any antibacterial activity | > 10000 | 300 | > 10000 | 200 | 200 | > 10000 | > 10000 | 200 | > 10000 | 300 | > 10000 | 300 | > 10000 | 400
